System: skin tissue
Test: Inventors' demonstration of the effect of monounsaturated fatty acids on skin tissue and complexion
Settings: in vivo

CCCCCCCCCCC/C=C\CCCCC(=O)O [petroselinic acid] was tested, and the “restoration of normal skin tissue / complexion” value was “lead to a restoration of normal skin tissue in perfect homeostasis”.
